Patent US4740521A, “Saudin, a novel hypoglycemic agent” (Purdue Research Foundation, priority 1986, dated 1988)

Assays:
[1] = tested on: plasma glucose level of non-fasted rats; assay: plasma glucose level of non-fasted rats after I.P. injection (Table 1); format: in vivo, rats (male albino); conditions: 40 mg/kg I.P.
Procedure: (§1) Male albino rats weighing from 100-150 gm were divided into groups each comprised from 7-8 rats. […] Non-fasted and fasted rats were either non-alloxanized or injected I.V. with alloxan at a dose of 40 mg/kg two days before administration of saudin. Saudin was injected I.P. in the experiment groups in a suspension form containing 0.5% carboxymethylcellulose (CMC). Control groups received I.P. injection of 0.5% CMD at a dose not exceeding 1 ml/100 gm (Maximum volume used to suspend saudin). Blood samples were taken and the plasma glucose level was estimated as indicated in the results. The method used for glucose estimation was similar to that used by Free et al., Advances in Clinical Chemistry, E. H. Sobotaka and C. P. Steward (eds.), Academic Press, New York, 6, p. 67 (1973).
non-fasted rats in response to I.P. injection of
40 mg/kg. Blood samples were taken at 1 h intervals
in heparinized tubes and plasma was separated for […]

[2] = tested on: blood sugar level of fasting mice (alloxanized); assay: blood sugar level of fasting alloxanized mice (Table 3); format: in vivo; conditions: for Blood Sugar Level, mean S.E., 1 h: control 327 ± 46; for Blood Sugar Level, mean S.E., 2 h: control 360 ± 50; for Blood Sugar Level, mean S.E., 3 h: control 355 ± 48.5; for Blood Sugar Level, mean S.E., 4 h: control 378 ± 51.5; for Blood Sugar Level, mean S.E., 5 h: control 377 ± 57.5
Procedure: It is possible, therefore, that saudin operates by a different mechanism than the hypoglycemic agents heretofore employed, and may for that reason find unique application in medicine. The results of comparative tests are given in the following Table 3, using mice injected intravenously with 50 mg/kg of alloxan 3 days before the tests.

animals = assay: hypoglycemic effect in animals on injection (general statement); format: in vivo; conditions: read-out: dose producing a significant hypoglycemic effect, by injection, "above about"
Procedure: For the control of hyperglycemia, a dose between about 25 and about 110 mg/kg is effective, when administered at intervals of about 2 to about 12 hours in a tissue-compatible liquid. Normal saline solution is a suitable solvent diluent, or alternatively aqueous carboxymethylcellulose.

in vivo = conditions: mouse, ip
Description: When suspended in carboxymethylcellulose (1.5%) and injected i.p. into mice according to the method of Miller and Tainter, Proc. Soc.

[3] = tested on: plasma glucose level of alloxanized and non-alloxanized rats; assay: plasma glucose level of alloxanized and non-alloxanized rats, fasted or non-fasted (Table 2); format: in vivo, rats (male albino)
Procedure: as §1
Effect of saudin on the plasma glucose level of alloxanized and
non-alloxanized rats either fasted
or non-fasted. Blood samples were taken 2 hours after saudin injection in
tubes containing heparin.
Plasma was separated for glucose estimation.

[4] = fasting mice, 50 mg/kg alloxan i.v. 3 days before, saudin 40 mg/kg, tolbutamide 150 mg/kg

## C[C@H]1C(=O)O[C@]23CC[C@]4(C)C(=O)OC[C@@]45O[C@](c4ccoc4)(C[C@@H]1[C@@]25C)O3 [saudin, (-)-(1R,4R,5S,7R,9S,13S,16R) -7-(3-furanyl)-4,13,16-trimethyl-2,8,11,17-tetraoxapentacyclo [7.6.1.1^1,7.0^5,16.0^9,13]heptadeca-3,12-dione]
[1]; non-alloxanized fed rats, two hours after injection
  hypoglycemic effect (in words): significant hypoglycemic effect
[1]; non-fasted, non-alloxanized rats, 0 h, control 113.63 ± 7.50, saudin S.E. 3.05
  Plasma glucose level, S.E., 0 h: 109.75 mg/dL
[1]; non-fasted, non-alloxanized rats, 1 h, control 115.25 ± 5.78, saudin S.E. 4.45
  Plasma glucose level, S.E., 1 h: 127.86 mg/dL
[1]; non-fasted, non-alloxanized rats, 2 h, control 126.75 ± 4.62, saudin S.E. 2.31*, significant vs control at P < 0.01
  Plasma glucose level, S.E., 2 h: 107.00 mg/dL
[1]; non-fasted, non-alloxanized rats, 3 h, control 105.00 ± 3.23, saudin S.E. 3.78
  Plasma glucose level, S.E., 3 h: 97.00 mg/dL
[1]; non-fasted, non-alloxanized rats, 4 h, control 104.73 ± 4.11, saudin S.E. 4.81
  Plasma glucose level, S.E., 4 h: 98.00 mg/dL
[2]; alloxanized mice, unlike tolbutamide
  hypoglycemic effect in alloxanized mice (in words): does not produce a hypoglycemic effect
[2]; fasting mice, 50 mg/kg alloxan i.v. 3 days before, saudin 40 mg/kg, tolbutamide 150 mg/kg, 0 h, control 230 ± 40
  Blood Sugar Level, mean S.E., 0 h: 222 ± 25 mg %
[2]; [4]
  Blood Sugar Level, mean S.E., 1 h: 288 ± 48.5 mg %
  Blood Sugar Level, mean S.E., 2 h: 346 ± 55.4 mg %
  Blood Sugar Level, mean S.E., 3 h: 342 ± 55.4 mg %
  Blood Sugar Level, mean S.E., 4 h: 355 ± 54.3 mg %
  Blood Sugar Level, mean S.E., 5 h: 443 ± 62.7 mg %
animals
  minimal effective dose: > 10 mg/kg
In vivo
  LD50: 500 ± 15.8 mg/kg
[3]; alloxanized (40 mg/kg alloxan I.V. 2 days before) fasted rats, 2 hours after saudin injection, control 116.66 ± 6.64, saudin S.E. 4.45
  Plasma glucose level, S.E., alloxanized fasted, Exp.: 103.5 mg/dL
[3]; alloxanized (40 mg/kg alloxan I.V. 2 days before) non-fasted rats, 2 hours after saudin injection, control 141.2 ± 3.43, saudin S.E. 10.78
  Plasma glucose level, S.E., alloxanized non-fasted, Exp.: 142.8 mg/dL
[3]; fasted alloxanized and non-alloxanized rats, fed alloxanized rats
  effect on plasma glucose levels (in words): did not alter the plasma glucose levels
[3]; non-alloxanized fasted rats, 2 hours after saudin injection, control 81.14 ± 4.31, saudin S.E. 3.05
  Plasma glucose level, S.E., non-alloxanized fasted, Exp.: 79.86 mg/dL
[3]; non-alloxanized non-fasted rats, 2 hours after saudin injection, control 132.14 ± 3.82, saudin S.E. 2.22*, significant vs control at P < 0.01
  Plasma glucose level, S.E., non-alloxanized non-fasted, Exp.: 111.85 mg/dL

## CCCCNC(=O)NS(=O)(=O)c1ccc(C)cc1 [tolbutamide, reference compound]
[2]; [4]
  Blood Sugar Level, mean S.E., 1 h: 185 ± 36 mg %
  Blood Sugar Level, mean S.E., 2 h: 212 ± 40.4 mg %
  Blood Sugar Level, mean S.E., 3 h: 235 ± 40.8 mg %
  Blood Sugar Level, mean S.E., 4 h: 262 ± 54 mg %
  Blood Sugar Level, mean S.E., 5 h: 347 ± 64 mg %
